Counter-ions that a name gives are not always drawn. Like-named read-outs stand apart in the source and are kept apart here.
Assays:
P. aeruginosa biofilms = test: continuous flow chamber biofilm, 3-day-old, harvested and plated for viability; assay type: cell-based, P. aeruginosa PAO1; details: for eradication of mature biofilm (viability on LB plates): 24 hours
Excerpt: (§1) The wild-type P. aeruginosa PAO1 used for the planktonic and biofilm experiments was obtained from the Pseudomonas Genetic Stock Center (www.pseudomonas.med.ecu.edu, strain PAO0001). The wild-type S. aureus 8325-4, used for planktonic and biofilm experiments was described by Novick, R. P. 1967. For plating, Luria broth (LB) medium mix with 2.0% agar was used. For all experiments including bacterial biofilms, AB minimal medium supplemented with glucose was used except if different is mentioned. […] The continuous flow system is based on once through flow chambers perfused with sterile AB minimal medium containing 0.3 mM glucose as described by Christensen et al. (1999). Continuous flow biofilm tolerance to acetic acid was assessed by growing P. aeruginosa or S. aureus biofilms for three days, then subsequently at day three to four supplementing the AB minimal medium with different concentrations of acetic acid or HCl (HCL served as a as control to acetic acid treatments). […] Due to the buffer capacity of the AB minimal medium used, the pH of the solution became 4.33. […] After the treatment the biofilm biomasses were harvested mechanically from the flow chambers and plated on LB plates for determination of viability. […] The kinetics of antimicrobial activity against mature biofilms was tested by treating a 3-day-old continuous flow chamber biofilms of either P. aeruginosa with 0.5% or S. aureus with 1.0% acetic acid for 24 hours. Due to the buffer capacity of the AB minimal medium used the pH of the solution became 4.33. […] After the treatment the biofilms were harvested mechanically, by scraping with a sterile scalpel, from the flow chambers and plated on LB plates for determination of viable counts.

[1] = tested on: static P. aeruginosa biofilms; test: static 24 hour old biofilm in microtiter dishes, CFU after treatment; assay type: cell-based; details: for antimicrobial effect on biofilm (CFU): 0.5% acetic acid
Excerpt: AB minimal medium without acetic acid adjusted to different pH values was used as control.
AB minimal medium supplemented with increasing concentrations of tobramycin served as control. The biofilm were harvested and plated on LB plates to determine the CFU after treatment (For visual appearance “no growth” is arbitrarily given a CFU value of 2).
AB minimal medium without acetic acid, but supplemented with increasing concentrations of tobramycin served as control.
The wild-type P. aeruginosa PAO1 used for the planktonic and biofilm experiments was obtained from the Pseudomonas Genetic Stock Center (www.pseudomonas.med.ecu.edu, strain PAO0001). The wild-type S. aureus 8325-4, used for planktonic and biofilm experiments was described by Novick, R. P. 1967.
For plating, Luria broth (LB) medium mix with 2.0% agar was used. For all experiments including bacterial biofilms, AB minimal medium supplemented with glucose was used except if different is mentioned.
(§2) The static biofilm setup is based on biofilms growing in microtiter dishes with AB minimal medium containing 0.3 mM glucose as described by O'toole et al (1999). Planktonic cultures were grown in shake flasks at 37° C.
(§3) Static biofilm tolerance to acetic acid was assessed by exchanging the AB minimal medium of 24 h old biofilms with AB minimal medium supplemented with different concentrations of acetic acid or HCl as control. To raise the pH of either acetic acid or HCl, NaOH was added in different concentrations.
(§4) To elucidate a synergistic antimicrobial effect of acetic acid and antibiotics, static biofilms of P. aeruginosa were grown for 24 hours prior to subsequent treatment with increasing concentrations of tobramycin and 0.5% acetic acid in the pH interval 3-6.85. The pH was adjusted by supplementing the AB minimal medium with either HCl or NaOH.

S. aureus biofilms = details: for eradication of mature biofilm (viability on LB plates): 24 hours
Excerpt: as §1

[2] = tested on: clinical non-mucoid P. aeruginosa isolate; details: 0.5% acetic acid, pH below 4.76
Description: as §2, §3, §4

[3] = tested on: clinical mucoid P. aeruginosa isolate; details: 0.5% acetic acid, pH below 4.76
Description: as §2, §3, §4

[4] = 0.5% acetic acid, AB minimal medium, pH 4.33
[5] = 1.0% acetic acid, AB minimal medium, pH 4.33

Compound: Cl [HCl, reference compound]
- eradication of mature biofilm (viability on LB plates) (P. aeruginosa biofilms; AB minimal medium adjusted to pH 4.33 using HCl): no effect

Compound: NC[C@H]1O[C@H](O[C@H]2[C@H](O)[C@@H](O[C@H]3O[C@H](CO)[C@@H](O)[C@H](N)[C@H]3O)[C@H](N)C[C@@H]2N)[C@H](N)C[C@@H]1O [Tobramycin, tobramycin, reference compound]
- reduction of bacterial viability ([1]; tobramycin alone at concentrations above 12.5 μg/ml): 5 fold

Compound: CC(=O)O [acetic acid]
- eradication of mature biofilm (viability on LB plates) (S. aureus biofilms; [4]): reduced the number of viable cells
- eradication of mature biofilm (S. aureus biofilms; 1.0% acetic acid in sterile miliQ water): Complete eradication
- eradication of mature biofilm (viability on LB plates) (S. aureus biofilms; [5]): complete eradication
- time to complete killing of all bacteria (S. aureus biofilms; [5]): 3 h
- eradication of mature biofilm (P. aeruginosa biofilms; 0.5% acetic acid in sterile miliQ water): Complete eradication
- eradication of mature biofilm (viability on LB plates) (P. aeruginosa biofilms; [4]): completely eradicated
- time to complete killing of all bacteria (P. aeruginosa biofilms; [4]): 3 h
- eradication of mature biofilm (viability on LB plates) (P. aeruginosa biofilms; [5]): completely eradicated
- eradication of biofilm (CFU) [2]: eradicates the biofilms
- eradication of biofilm (CFU) [3]: eradicates the biofilms
- effect of acetic acid alone on biofilm [1]: decreasing
- antibacterial effect on biofilm (CFU) ([1]; 0.5% acetic acid alone, pH 6.85): no antibacterial effect
- antimicrobial effect on biofilm (CFU) ([1]; pH 5): reduced effect
- antimicrobial effect on biofilm (CFU) ([1]; pH 5.5 and above): no effect
- antimicrobial effect on biofilm (CFU) ([1]; pH interval 3-4.76): eradicated biofilms

Reference: US20110245148A1, “ACETIC ACID AND A BUFFER” (priority 2008, published 2011)
